The NIST ThermoML archive (doi:10.1021/je700260f)
Numbers after ± are expanded uncertainties.

Conditions: 303.15 K, Liquid, Vibrating tube method

FC(C(F)(F)F)C(F)(F)F [1,1,1,2,3,3,3-heptafluoropropane]
Conditions | mass density [kg/m3]
15975 kPa | 1462 ± 1.6
16006 kPa | 1462.4 ± 1.6
16038 kPa | 1462.4 ± 1.6
16079 kPa | 1462.6 ± 1.6
16111 kPa | 1462.8 ± 1.6
16152 kPa | 1462.9 ± 1.6
16184 kPa | 1463 ± 1.6
16220 kPa | 1463.2 ± 1.6
16252 kPa | 1463.4 ± 1.6
16288 kPa | 1463.6 ± 1.6
16325 kPa | 1463.8 ± 1.6
16349 kPa | 1463.9 ± 1.6
16386 kPa | 1464 ± 1.6
16414 kPa | 1464.1 ± 1.6
16443 kPa | 1464.3 ± 1.6
16485 kPa | 1464.4 ± 1.6
16513 kPa | 1464.6 ± 1.6
16550 kPa | 1464.7 ± 1.6
16577 kPa | 1464.8 ± 1.6
16623 kPa | 1465.1 ± 1.6
16650 kPa | 1465.1 ± 1.6
16678 kPa | 1465.2 ± 1.6
16706 kPa | 1465.4 ± 1.6
16742 kPa | 1465.5 ± 1.6
16775 kPa | 1465.7 ± 1.6
16802 kPa | 1465.8 ± 1.6
16832 kPa | 1466 ± 1.6
16862 kPa | 1466 ± 1.6
16887 kPa | 1466.2 ± 1.6
16920 kPa | 1466.4 ± 1.6
16953 kPa | 1466.4 ± 1.6
16978 kPa | 1466.6 ± 1.6
17021 kPa | 1466.7 ± 1.6
17046 kPa | 1466.9 ± 1.6
17084 kPa | 1467 ± 1.6
17113 kPa | 1467.2 ± 1.6
17142 kPa | 1467.4 ± 1.6
17167 kPa | 1467.5 ± 1.6
17196 kPa | 1467.5 ± 1.6
17235 kPa | 1467.8 ± 1.6
17260 kPa | 1467.9 ± 1.6
17289 kPa | 1468 ± 1.6
17322 kPa | 1468.1 ± 1.6
17360 kPa | 1468.3 ± 1.6
17393 kPa | 1468.3 ± 1.6
17423 kPa | 1468.6 ± 1.6
17451 kPa | 1468.7 ± 1.6
17484 kPa | 1468.8 ± 1.6
17509 kPa | 1468.9 ± 1.6
17544 kPa | 1469.1 ± 1.6
17577 kPa | 1469.3 ± 1.6
17603 kPa | 1469.3 ± 1.6
17633 kPa | 1469.4 ± 1.6
17662 kPa | 1469.6 ± 1.6
17718 kPa | 1469.9 ± 1.6
17752 kPa | 1470 ± 1.6
17778 kPa | 1470 ± 1.6
17808 kPa | 1470.1 ± 1.6
17837 kPa | 1470.3 ± 1.6
17867 kPa | 1470.6 ± 1.6
17892 kPa | 1470.5 ± 1.6
17928 kPa | 1470.7 ± 1.6
17958 kPa | 1471 ± 1.6
17996 kPa | 1471 ± 1.6
18026 kPa | 1471.1 ± 1.6
18056 kPa | 1471.2 ± 1.6
18091 kPa | 1471.3 ± 1.6
18125 kPa | 1471.6 ± 1.6
18151 kPa | 1471.7 ± 1.6
18185 kPa | 1471.7 ± 1.6
18211 kPa | 1471.9 ± 1.6
18238 kPa | 1472.2 ± 1.6
18277 kPa | 1472.1 ± 1.6
18303 kPa | 1472.4 ± 1.6
18333 kPa | 1472.5 ± 1.6
18359 kPa | 1472.6 ± 1.6
18389 kPa | 1472.6 ± 1.6
18419 kPa | 1472.9 ± 1.6
18449 kPa | 1473 ± 1.6
18480 kPa | 1472.9 ± 1.6
18511 kPa | 1473.3 ± 1.6
18545 kPa | 1473.3 ± 1.6
18580 kPa | 1473.5 ± 1.6
18615 kPa | 1473.7 ± 1.6
18646 kPa | 1473.8 ± 1.6
18677 kPa | 1473.8 ± 1.6
18707 kPa | 1474.1 ± 1.6
18737 kPa | 1474.2 ± 1.6
18777 kPa | 1474.3 ± 1.6
18803 kPa | 1474.4 ± 1.6
18835 kPa | 1474.5 ± 1.6
18861 kPa | 1474.7 ± 1.6
18888 kPa | 1474.9 ± 1.6
18913 kPa | 1475 ± 1.6
18954 kPa | 1475.1 ± 1.6
18980 kPa | 1475.2 ± 1.6
19017 kPa | 1475.4 ± 1.6
19044 kPa | 1475.5 ± 1.6
19075 kPa | 1475.6 ± 1.6
19101 kPa | 1475.6 ± 1.6
19144 kPa | 1475.8 ± 1.6
19166 kPa | 1476 ± 1.6
19200 kPa | 1476.1 ± 1.6
19235 kPa | 1476.3 ± 1.6
19270 kPa | 1476.4 ± 1.6
19296 kPa | 1476.6 ± 1.6
19327 kPa | 1476.6 ± 1.6
19353 kPa | 1476.7 ± 1.6
19385 kPa | 1476.8 ± 1.6
19420 kPa | 1477 ± 1.6
19455 kPa | 1477.2 ± 1.6
19490 kPa | 1477.3 ± 1.6
19517 kPa | 1477.4 ± 1.6
19553 kPa | 1477.5 ± 1.6
19592 kPa | 1477.7 ± 1.6
19624 kPa | 1477.9 ± 1.6
19655 kPa | 1478.1 ± 1.6
19691 kPa | 1478.1 ± 1.6
19717 kPa | 1478.1 ± 1.6
19758 kPa | 1478.3 ± 1.6
19785 kPa | 1478.6 ± 1.6
19828 kPa | 1478.6 ± 1.6
19860 kPa | 1478.8 ± 1.6
19891 kPa | 1478.9 ± 1.6
19918 kPa | 1479 ± 1.6
19949 kPa | 1479.2 ± 1.6
19981 kPa | 1479.4 ± 1.6
20016 kPa | 1479.4 ± 1.6
20044 kPa | 1479.6 ± 1.6
20076 kPa | 1479.9 ± 1.6
20107 kPa | 1479.9 ± 1.6
20152 kPa | 1480 ± 1.6
20179 kPa | 1480.1 ± 1.6
20216 kPa | 1480.2 ± 1.6
20244 kPa | 1480.4 ± 1.6
20285 kPa | 1480.6 ± 1.6
20325 kPa | 1480.6 ± 1.6
20357 kPa | 1480.8 ± 1.6
20394 kPa | 1481 ± 1.6
20436 kPa | 1481.2 ± 1.6
20463 kPa | 1481.3 ± 1.6
20491 kPa | 1481.3 ± 1.6
20539 kPa | 1481.6 ± 1.6
20570 kPa | 1481.7 ± 1.6
20597 kPa | 1481.8 ± 1.6
20637 kPa | 1481.9 ± 1.6
20668 kPa | 1482 ± 1.6
20701 kPa | 1482.2 ± 1.6
20728 kPa | 1482.4 ± 1.6
20769 kPa | 1482.6 ± 1.6
20802 kPa | 1482.7 ± 1.6
20880 kPa | 1482.9 ± 1.6
21049 kPa | 1483.6 ± 1.6
21082 kPa | 1483.8 ± 1.6
21120 kPa | 1483.8 ± 1.6
21152 kPa | 1484.1 ± 1.6
21193 kPa | 1484.2 ± 1.6
21217 kPa | 1484.4 ± 1.6
21250 kPa | 1484.5 ± 1.6
21278 kPa | 1484.6 ± 1.6
21322 kPa | 1484.7 ± 1.6
21360 kPa | 1484.9 ± 1.6
21388 kPa | 1485 ± 1.6
21421 kPa | 1485.1 ± 1.6
21458 kPa | 1485.3 ± 1.6
21490 kPa | 1485.4 ± 1.6
21523 kPa | 1485.5 ± 1.6
21556 kPa | 1485.5 ± 1.6
21593 kPa | 1485.8 ± 1.6
21626 kPa | 1486 ± 1.6
22323 kPa | 1488.6 ± 1.6
22447 kPa | 1489.1 ± 1.6
22485 kPa | 1489.3 ± 1.6
22514 kPa | 1489.4 ± 1.6
22548 kPa | 1489.4 ± 1.6
22580 kPa | 1489.5 ± 1.6
22613 kPa | 1489.9 ± 1.6
22643 kPa | 1489.7 ± 1.6
22673 kPa | 1490 ± 1.6
22707 kPa | 1490.1 ± 1.6
22733 kPa | 1490.2 ± 1.6
22771 kPa | 1490.3 ± 1.6
22801 kPa | 1490.4 ± 1.6
22828 kPa | 1490.5 ± 1.6
22863 kPa | 1490.7 ± 1.6
22899 kPa | 1490.8 ± 1.6
22934 kPa | 1490.9 ± 1.6
22959 kPa | 1491.1 ± 1.6
22997 kPa | 1491.3 ± 1.6
23032 kPa | 1491.4 ± 1.6
23062 kPa | 1491.6 ± 1.6
23102 kPa | 1491.5 ± 1.6
23128 kPa | 1491.8 ± 1.6
23159 kPa | 1491.7 ± 1.6
23186 kPa | 1491.9 ± 1.6
23217 kPa | 1492 ± 1.6
23249 kPa | 1492.1 ± 1.6
23281 kPa | 1492.3 ± 1.6
23307 kPa | 1492.3 ± 1.6
23342 kPa | 1492.6 ± 1.6
23364 kPa | 1492.6 ± 1.6
23395 kPa | 1492.8 ± 1.6
23431 kPa | 1492.8 ± 1.6
23462 kPa | 1492.9 ± 1.6
23497 kPa | 1493 ± 1.6
